In patent publication US20250171457A1, “NITROGEN-CONTAINING HETEROCYCLIC COMPOUND HAVING NRF2 ACTIVATION EFFECT” (CHUGAI SEIYAKU KABUSHIKI KAISHA, priority 2022, published 2025):

tested on: Nrf2 transcriptional activity (pARE-Luc reporter) in HepG2 cells; assay: In vitro Nrf2 transcriptional activity measurement by ARE-dependent reporter assay in HepG2 cell; format: cell-based, human; settings: Homo sapiens; HepG2 cells transfected with pARE-Luc, 4 hours at 37° C.; luciferase activity of Example 1-54 or Example 17-23 at 3.75 μM defined as 100%
How it was run: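 HepG2 cells transfected with pGL4.37 (pARE-Luc), replated onto compound and incubated 4 h at 37° C; luciferase read by Bright-Glo luminescence. Response normalized to 100% set by a reference compound at 3.75 μM; EC50 from dose-response curve.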

**Q.** `O=C(O)c1ccc(-c2cccc3c2OCN(C(=O)c2c(Cl)cc(N4CCC(N5CCOCC5)CC4)cc2Cl)C3)cc1N1CCOCC1` [Compound 1-65, 4-[3-[2,6-Dichloro-4-(4-morpholin-4-ylpiperidin-1-yl)benzoyl]-2,4-dihydro-1,3-benzoxazin-8-yl]-2-morpholin-4-ylbenzoic acid] was tested. Which EC50 did it give?
**A.** Its EC50 is 3.7 nM.

**Q.** For `O=C(O)c1ccc(-c2cccc3c2OCN(C(=O)c2c(Cl)cc(N4CCN(C5COC5)CC4)cc2Cl)C3)cc1N1CCOCC1` [Compound 1-66, 4-[3-[2,6-Dichloro-4-[4-(oxetan-3-yl)piperazin-1-yl]benzoyl]-2,4-dihydro-1,3-benzoxazin-8-yl]-2-morpholin-4-ylbenzoic acid], which EC50 is on record?
**A.** The EC50 was 2.7 nM.

**Q.** Which EC50 does the source give for `CC(C)N1CCN(c2cc(Cl)c(C(=O)N3COc4c(cccc4-c4ccc(C(=O)O)c(N5CCOCC5)c4)C3)c(Cl)c2)CC1` [Compound 1-67, 4-[3-[2,6-Dichloro-4-(4-propan-2-ylpiperazin-1-yl)benzoyl]-2,4-dihydro-1,3-benzoxazin-8-yl]-2-morpholin-4-ylbenzoic acid] here?
**A.** Its EC50 is 4.4 nM.

**Q.** With `CN1CCN(c2cc(Cl)c(C(=O)N3CSc4c(cccc4-c4cc(N5CCOCC5)c(C(=O)O)cc4F)C3)c(Cl)c2)CC1` [Compound 1-68, 4-[3-[2,6-Dichloro-4-(4-methylpiperazin-1-yl)benzoyl]-2,4-dihydro-1,3-benzothiazin-8-yl]-5-fluoro-2-morpholin-4-ylbenzoic acid] as the compound, how does the EC50 read?
**A.** Its EC50 is 8.1 nM.

**Q.** How did the EC50 turn out when `COCCN1CCN(c2cc(Cl)c(C(=O)N3CSc4c(cccc4-c4cc(N5CCOCC5)c(C(=O)O)cc4F)C3)c(Cl)c2)CC1` [Compound 1-69, 4-[3-[2,6-Dichloro-4-[4-(2-methoxyethyl)piperazin-1-yl]benzoyl]-2,4-dihydro-1,3-benzothiazin-8-yl]-5-fluoro-2-morpholin-4-ylbenzoic acid] was run?
**A.** Its EC50 is 5.4 nM.

**Q.** With `O=C(O)c1cc(F)c(-c2cccc3c2OCN(C(=O)c2ccc(N4CCN(C5COC5)CC4)cc2Cl)C3)cc1N1CCOCC1` [Compound 1-70, 4-[3-[2-Chloro-4-[4-(oxetan-3-yl)piperazin-1-yl]benzoyl]-2,4-dihydro-1,3-benzoxazin-8-yl]-5-fluoro-2-morpholin-4-ylbenzoic acid] as the compound, how does the EC50 read?
**A.** The EC50 was 4.7 nM.

**Q.** `COC1CN(c2cc(Cl)c(C(=O)N3COc4c(cccc4-c4cc(N5C6CCC5COC6)c(C(=O)O)cc4F)C3)cc2C)C1` [Compound 1-71, 4-[3-[2-Chloro-4-(3-methoxyazetidin-1-yl)-5-methylbenzoyl]-2,4-dihydro-1,3-benzoxazin-8-yl]-5-fluoro-2-(3-oxa-8-azabicyclo[3.2.1]octan-8-yl)benzoic acid] was tested. Which EC50 did it give?
**A.** The EC50 was 6.1 nM.

**Q.** How did the EC50 turn out when `COc1cc(C(=O)N2COc3c(cccc3-c3cc(N4CCOCC4)c(C(=O)O)cc3F)C2)c(Cl)cc1N1CCN(C)CC1` [Compound 1-72, 4-[3-[2-Chloro-5-methoxy-4-(4-methylpiperazin-1-yl)benzoyl]-2,4-dihydro-1,3-benzoxazin-8-yl]-5-fluoro-2-morpholin-4-ylbenzoic acid] was run?
**A.** The EC50 was 5.8 nM.

**Q.** For `COc1cc(C(=O)N2COc3c(cccc3-c3cc(N4CCOCC4)c(C(=O)O)cc3F)C2)c(Cl)cc1N1CC2(COC2)C1` [Compound 1-73, 4-[3-[2-Chloro-5-methoxy-4-(2-oxa-6-azaspiro[3.3]heptan-6-yl)benzoyl]-2,4-dihydro-1,3-benzoxazin-8-yl]-5-fluoro-2-morpholin-4-ylbenzoic acid], which EC50 is on record?
**A.** Its EC50 is 5.1 nM.

**Q.** `COc1cc(C(=O)N2COc3c(cccc3-c3cc(N4C5CCC4COC5)c(C(=O)O)cc3F)C2)c(Cl)cc1N1CC(OC)C1` [Compound 1-74, 4-[3-[2-Chloro-5-methoxy-4-(3-methoxyazetidin-1-yl)benzoyl]-2,4-dihydro-1,3-benzoxazin-8-yl]-5-fluoro-2-(3-oxa-8-azabicyclo[3.2.1]octan-8-yl)benzoic acid] was tested. Which EC50 did it give?
**A.** The EC50 was 2.7 nM.

**Q.** For `O=C(O)c1ccc(-c2cccc3c2C(=O)NN(C(=O)c2c(Cl)cc(N4CCN(C5CC5)CC4)cc2Cl)C3)cc1N1CCOCC1` [Compound 1-75, 4-[2-[2,6-Dichloro-4-(4-cyclopropylpiperazin-1-yl)benzoyl]-4-oxo-1,3-dihydrophthalazin-5-yl]-2-morpholin-4-ylbenzoic acid], which EC50 is on record?
**A.** Its EC50 is 8 nM.

**Q.** With `CC(C)N1CCN(c2cc(Cl)c(C(=O)N3Cc4cccc(-c5ccc(C(=O)O)c(N6CCOCC6)c5)c4C(=O)N3)c(Cl)c2)CC1` [Compound 1-76, 4-[2-[2,6-Dichloro-4-(4-propan-2-ylpiperazin-1-yl)benzoyl]-4-oxo-1,3-dihydrophthalazin-5-yl]-2-morpholin-4-ylbenzoic acid] as the compound, how does the EC50 read?
**A.** Its EC50 is 5.3 nM.

**Q.** How did the EC50 turn out when `O=C(O)c1ccc(-c2cccc3c2C(=O)NN(C(=O)c2c(Cl)cc(N4CCN(CC(F)(F)F)CC4)cc2Cl)C3)cc1N1CCOCC1` [Compound 1-77, 4-[2-[2,6-Dichloro-4-[4-(2,2,2-trifluoroethyl)piperazin-1-yl]benzoyl]-4-oxo-1,3-dihydrophthalazin-5-yl]-2-morpholin-4-ylbenzoic acid] was run?
**A.** Its EC50 is 5.6 nM.

**Q.** Which EC50 does the source give for `CN1CCN(c2cc(Cl)c(C(=O)N3COc4c(-c5cc(N6CCOCC6)c(C(=O)O)cc5F)ccc(F)c4C3)c(Cl)c2)CC1` [Compound 1-78, 4-[3-[2,6-Dichloro-4-(4-methylpiperazin-1-yl)benzoyl]-5-fluoro-2,4-dihydro-1,3-benzoxazin-8-yl]-5-fluoro-2-morpholin-4-ylbenzoic acid] here?
**A.** Its EC50 is 15 nM.

**Q.** How did the EC50 turn out when `COCCN1CCN(c2cc(Cl)c(C(=O)N3COc4c(ccc(F)c4-c4ccc(C(=O)O)c(N5CCOCC5)c4)C3)c(Cl)c2)CC1` [Compound 1-79, 4-[3-[2,6-Dichloro-4-[4-(2-methoxyethyl)piperazin-1-yl]benzoyl]-7-fluoro-2,4-dihydro-1,3-benzoxazin-8-yl]-2-morpholin-4-ylbenzoic acid] was run?
**A.** Its EC50 is 3.6 nM.

**Q.** For `CN1CCN(c2cc(Cl)c(C(=O)N3COc4c(ccc(F)c4-c4cc(N5CCOCC5)c(C(=O)O)cc4F)C3)c(Cl)c2)CC1` [Compound 1-80, 4-[3-[2,6-Dichloro-4-(4-methylpiperazin-1-yl)benzoyl]-7-fluoro-2,4-dihydro-1,3-benzoxazin-8-yl]-5-fluoro-2-morpholin-4-ylbenzoic acid], which EC50 is on record?
**A.** The EC50 was 1.9 nM.

**Q.** How did the EC50 turn out when `COCCN1CCN(c2cc(Cl)c(C(=O)N3COc4c(ccc(F)c4-c4cc(N5CCOCC5)c(C(=O)O)cc4F)C3)c(Cl)c2)CC1` [Compound 1-81, 4-[3-[2,6-Dichloro-4-[4-(2-methoxyethyl)piperazin-1-yl]benzoyl]-7-fluoro-2,4-dihydro-1,3-benzoxazin-8-yl]-5-fluoro-2-morpholin-4-ylbenzoic acid] was run?
**A.** The EC50 was 5.1 nM.

**Q.** With `O=C(O)c1cc(F)c(-c2c(F)ccc3c2OCN(C(=O)c2c(Cl)cc(N4CCN(C5COC5)CC4)cc2Cl)C3)cc1N1CCOCC1` [Compound 1-82, 4-[3-[2,6-Dichloro-4-[4-(oxetan-3-yl)piperazin-1-yl]benzoyl]-7-fluoro-2,4-dihydro-1,3-benzoxazin-8-yl]-5-fluoro-2-morpholin-4-ylbenzoic acid] as the compound, how does the EC50 read?
**A.** Its EC50 is 3.5 nM.

**Q.** With `C[C@@H]1[C@@H](N2CCOCC2)CN1c1cc(Cl)c(C(=O)N2COc3c(cccc3-c3cc(N4C5CCC4COC5)c(C(=O)O)cc3F)C2)c(Cl)c1` [Compound 1-84, 4-[3-[2,6-Dichloro-4-[(2R,3S)-2-methyl-3-morpholin-4-ylazetidin-1-yl]benzoyl]-2,4-dihydro-1,3-benzoxazin-8-yl]-5-fluoro-2-(3-oxa-8-azabicyclo[3.2.1]octan-8-yl)benzoic acid] as the compound, how does the EC50 read?
**A.** Its EC50 is 2.4 nM.

**Q.** With `C[C@@H]1[C@H](N2CCOCC2)CN1c1cc(Cl)c(C(=O)N2COc3c(cccc3-c3cc(N4C5CCC4COC5)c(C(=O)O)cc3F)C2)c(Cl)c1` [Compound 1-85, 4-[3-[2,6-Dichloro-4-[(2R,3R)-2-methyl-3-morpholin-4-ylazetidin-1-yl]benzoyl]-2,4-dihydro-1,3-benzoxazin-8-yl]-5-fluoro-2-(3-oxa-8-azabicyclo[3.2.1]octan-8-yl)benzoic acid] as the compound, how does the EC50 read?
**A.** The EC50 was 0.9 nM.

**Q.** Which EC50 does the source give for `COc1cc(-c2cc(Cl)c(C(=O)N3COc4c(cccc4-c4cc(N5C6CCC5COC6)c(C(=O)O)cc4F)C3)c(Cl)c2)ccn1` [Compound 2-1, 4-[3-[2,6-Dichloro-4-(2-methoxypyridin-4-yl)benzoyl]-2,4-dihydro-1,3-benzoxazin-8-yl]-5-fluoro-2-(3-oxa-8-azabicyclo[3.2.1]octan-8-yl)benzoic acid] here?
**A.** Its EC50 is 6.2 nM.

**Q.** How did the EC50 turn out when `CN1CC=C(c2cc(Cl)c(C(=O)N3COc4c(cccc4-c4cc(N5CCOCC5)c(C(=O)O)cc4F)C3)c(Cl)c2)CC1` [Compound 2-3, 4-[3-[2,6-Dichloro-4-(1-methyl-3,6-dihydro-2H-pyridin-4-yl)benzoyl]-2,4-dihydro-1,3-benzoxazin-8-yl]-5-fluoro-2-morpholin-4-ylbenzoic acid] was run?
**A.** Its EC50 is 1.4 nM.

**Q.** `O=C(O)c1ccc(-c2cccc3c2OCN(C(=O)c2c(Cl)cc(-c4ccncc4)cc2Cl)C3)cc1N1CCOCC1` [Compound 2-4, 4-[3-(2,6-Dichloro-4-pyridin-4-ylbenzoyl)-2,4-dihydro-1,3-benzoxazin-8-yl]-2-morpholin-4-ylbenzoic acid] was tested. Which EC50 did it give?
**A.** Its EC50 is 5.7 nM.

**Q.** With `COc1cc(C(=O)N2COc3c(cccc3-c3cc(N4CCOCC4)c(C(=O)O)cc3F)C2)c(Cl)cc1-c1ccncc1` [Compound 2-5, 4-[3-(2-Chloro-5-methoxy-4-pyridin-4-ylbenzoyl)-2,4-dihydro-1,3-benzoxazin-8-yl]-5-fluoro-2-morpholin-4-ylbenzoic acid] as the compound, how does the EC50 read?
**A.** Its EC50 is 2.4 nM.

**Q.** With `COc1cc(C(=O)N2COc3c(cccc3-c3cc(N4CCOCC4)c(C(=O)O)cc3F)C2)c(Cl)cc1-c1cnn(C)c1` [Compound 2-6, 4-[3-[2-Chloro-5-methoxy-4-(1-methylpyrazol-4-yl)benzoyl]-2,4-dihydro-1,3-benzoxazin-8-yl]-5-fluoro-2-morpholin-4-ylbenzoic acid] as the compound, how does the EC50 read?
**A.** The EC50 was 6 nM.

**Q.** With `CC(C)(CO)n1cc(-c2cc(Cl)c(C(=O)N3COc4c(cccc4-c4cc(N5CCOCC5)c(C(=O)O)cc4F)C3)c(Cl)c2)cn1` [Compound 3-1, 4-[3-[2,6-Dichloro-4-[1-(1-hydroxy-2-methylpropan-2-yl)pyrazol-4-yl]benzoyl]-2,4-dihydro-1,3-benzoxazin-8-yl]-5-fluoro-2-morpholin-4-ylbenzoic acid] as the compound, how does the EC50 read?
**A.** The EC50 was 1.3 nM.
